These results are taken from US10087199B2, “Super-resolution imaging compositions and methods using same” (Yale University, priority 2014, dated 2018).

One series relates to HeLa cells (Golgi label). The series can be described thus: Photostability in sequential 3D spinning disk confocal imaging. The class given is cell-based. As to conditions: fixed cells. Here is the method:
The relative photostability of Cer-TCO/SiR-Tz to both BODIPY-Cer and the SiR labeled SNAP-tag Golgi protein Rab6 was compared. The latter is the product of reaction between Rab6-SNAP and a benzyl guanine derivative of SiR (SiR-BG) (Lukinavicius, et al., 2013, Nature Chem. 5:132-139) and thus contains the same near-IR dye as SiR-Tz (FIGS. 5A-5B). HeLa cells were treated with Cer-TCO/SiR-Tz or BODIPY-Cer, while Rab6-SNAP-expressing cells were treated with SiR-BG. The cells were then examined in sequential 3D images using spinning disk confocal microscopy; 3D visualization limited fluorescence fluctuations due to axial sample drift. In each case, 3D “stacks” of 22 optical sections were acquired in series up to 500 times in live or fixed cells (FIGS. 5A-5B). In live cells, even under optimal imaging conditions the BODIPY-Cer fluorescent signal decreased by 50% after fewer than 15 stacks. In striking contrast, the fluorescent signal of cells treated with 2 μM Cer-TCO followed by 2 μM SiR-Tz decreased by only 10% after more than 120 3D stacks had been acquired. Consistent with a lower density of Rab6-SNAP protein in the Golgi, the signal from Rab6-SNAP-SiR decayed at an intermediate rate, decreasing by 50% after about 50 3D stacks. […] After 500 3D stacks the fluorescent signal of Cer-SiR decreased 16% whereas that of Rab6-SNAP-SiR decreased by 84%. […]

The subject of series [1] is fixed cells with labeled Golgi. Description: Photostability in STED microscopy of fixed cells. The format is cell-based. As to conditions: 0.52 frames/sec for 29 min (900 images). How it is done: To evaluate the merits of Cer-SiR for super-resolution imaging of the Golgi, HeLa cells that stably expressed GalNAcT2-GFP were labeled with Cer-TCO and SiR-Tz, and imaged by confocal and STED microscopy using a commercial Leica instrument (FIGS. 6A-6C). The confocal and STED images were compared in FIG. 6A. […] A direct comparison of the relative photostabilities of Cer-SiR and SiR-SNAP-Rab6 in fixed cells was performed using a custom STED microscope that is optimized for rapid image acquisition (FIG. 6B). Cells labeled with Cer-SiR or SiR-SNAPRab6 were continuously imaged at a rate of 0.52 frames/sec for 29 min (900 images) and the intensity of a line across the Golgi was plotted (FIG. 6B). […]
STED imaging was performed on a custom built system (Bewersdorf lab, Yale University) centered around an 80 MHz mode-locked Ti:Sapphhire laser (Chameleon Ultra II, Coherent) tuned to 755 nm as the STED depletion beam. […] Excitation for fluorescence was accomplished with a 640 nm pulsed diode laser (PicoQuant) electronically synchronized to the depletion beam with an additional computer controlled electronic delay (Colby Instruments). The STED depletion and fluorescence excitation beams were combined with a dichroic mirror and directed into a 100×1.4 NA oil immersion objective lens (UPLSAPO 100XO/PSF, Olympus) where they were focused at the sample. […]

`CCCCCCCCCCCCC/C=C/[C@@H](O)[C@H](CO)NC(=O)CCCCCNC(=O)OC1CCCC2=C(c3ccc(CNC(=O)c4ccc(C(=O)[O-])c(C5=C6C=CC(=[N+](C)C)C=C6[Si](C)(C)c6cc(N(C)C)ccc65)c4)cc3)NN=CC2CC1` (stereo partly drawn) [Cer-SiR, 4-((4-(7-(((6-(((2S,3R,E)-1,3-dihydroxyoctadec-4-en-2-yl)amino)-6-oxohexyl)carbamoyl)oxy)-2,4a,5,6,7,8,9,10-octahydrocycloocta[d]pyridazin-1-yl)benzyl)carbamoyl)-2-(7-(dimethylamino)-3-(dimethyliminio)-5,5-dimethyl-3,5-dihydrodibenzo[b,e]silin-10-yl)benzoate]: the “Decrease of fluorescent signal after 500 3D stacks” value in the series on HeLa cells (Golgi label) was 16%. Besides, the “Stability of STED images under continuous imaging” value in series [1] is on record as “stable throughout all 900 images”.
